Test results from article PMC13083723 (Patterns, 2026).
“And” between values parts separate entries of the source, which are not always exact repeats. Equal entries are not always repeated. Structures can show the parent of a compound that is named as a salt. Where two headings read alike, the source gives them in different places.

Tests used:
[1] = cited from earlier work; for Ki: read-out: Ki (value)
A549-ACE2 cells = assay: cells; format: cell-based; conditions: for activation at 10 µM: A549-ACE2, 24 h, read-out: PLD_Effect(%) A549-ACE2
Vero-E6 cells = assay: cells; format: cell-based; conditions: for activation at 10 µM: Chlorocebus sabaeus, Vero C1008, 24 h
[2] = read-out: PLD_Effect(%) VERO-E6
[3] = value is the negative log10 of mol/L

OCCN1CCN(CC/C=C2/c3ccccc3Sc3ccc(C(F)(F)F)cc32)CC1 [Flupentixol]
Log IC50 (value) [1]: -8.65
pchembl_value (Log IC50) [1]: 8.65
activation at 10 µM (A549-ACE2 cells): 81.9%
activation at 10 µM (Vero-E6 cells; [2]): 83.6%

CN1CCN(C2=Cc3ccccc3Oc3ccc(Cl)cc32)CC1 [2-CMDO]
activation at 10 µM (A549-ACE2 cells): 92.5%
activation at 10 µM (Vero-E6 cells; [2]): 61.3%

O=C(NCCN1CCC2(CC1)C(=O)NCN2c1cccc(F)c1)c1ccc(F)c(F)c1 [ML-298]
activation at 10 µM (A549-ACE2 cells): 97%
activation at 10 µM (Vero-E6 cells; [2]): 60.1%

CCC(C)CNCC(=O)N1CCc2sccc2C1COc1cccc(C)c1 (centres unmarked) [RU-SKI-43]
activation at 10 µM (A549-ACE2 cells): 85.5%
activation at 10 µM (Vero-E6 cells; [2]): 57.8%

CCSc1ccc2c(c1)N(CCCN1CCN(C)CC1)c1ccccc1S2 [thiethylperazine]
activation at 10 µM (A549-ACE2 cells): 98%
activation at 10 µM (Vero-E6 cells; [2]): 59.1%

Clc1ccc(C(OCCN2CCCCC2)c2ccccc2)cc1 (centres unmarked) [CLOPERASTINE HYDROCHLORIDE]
pchembl_value (AC50) [1]: 6.48
AC50 ([1]; read-out: AC50 (value)): 331 nM
activation at 10 µM (A549-ACE2 cells): 72.5%
activation at 10 µM (Vero-E6 cells; [2]): 63.9%

O=S(=O)(NCCNC/C=C/c1ccc(Br)cc1)c1cccc2cnccc12 [H-89]
IC50 ([1]; read-out: IC50 (value)): 590 nM
Kd ([1]; read-out: Kd (value)): 24 nM
pchembl_value (Kd) [1, 3]: 7.62
activation at 10 µM (A549-ACE2 cells): 98.9%
activation at 10 µM (Vero-E6 cells; [2]): 60.8%

CC(=O)c1ccc2c(c1)N(CCCN1CCN(CCO)CC1)c1ccccc1S2 [ACETOPHENAZINE MALEATE]
activation at 10 µM (A549-ACE2 cells): 52.6%
activation at 10 µM (Vero-E6 cells; [2]): 74.4%

CN(C)CCCOc1nn(Cc2ccccc2)c2ccccc12 [BENZYDAMINE HYDROCHLORIDE]
activation at 10 µM (A549-ACE2 cells): 65.2%
activation at 10 µM (Vero-E6 cells; [2]): 51.2%

Clc1ccc2c(c1)N=C(N1CCNCC1)c1ccccc1N2 [desmethylclozapine]
activation at 10 µM (A549-ACE2 cells): 89.5%
activation at 10 µM (Vero-E6 cells; [2]): 77.7%

CN1CCN(C(=O)CN[C@@H]2C[C@H]2c2ccc(OCc3ccccc3)cc2)CC1 [RN-1]
pchembl_value (IC50) [1, 3]: 8.51 and 6.29
activation at 10 µM (A549-ACE2 cells): 70.6%
activation at 10 µM (Vero-E6 cells; [2]): 87.7%

Cc1nc2ccc(Oc3ccc(F)cc3)cc2c(=O)n1C[C@H]1CCCN(C(C)C)C1 [YIL-781]
activation at 10 µM (A549-ACE2 cells): 52.7%
activation at 10 µM (Vero-E6 cells; [2]): 56.3%

Nc1nc2c(c(N3CCNCC3)n1)CCC1=C2[C@@H]2CCCC[C@@H]2O1 [A-987306]
pKi (value) [1]: 7.1
pchembl_value (pKi) [1]: 7.10
pchembl_value (IC50) [1, 3]: 8.41 and 10.06 and 8.24
activation at 10 µM (A549-ACE2 cells): 52.2%
activation at 10 µM (Vero-E6 cells; [2]): 70.7%

CC(CN1c2ccccc2Sc2ccccc21)N(C)C (centres unmarked) [PROMETHAZINE HYDROCHLORIDE]
AC50 [1]: 30 nM
activation at 10 µM (A549-ACE2 cells): 96.5%
activation at 10 µM (Vero-E6 cells; [2]): 55.4%

Cn1ncc(Cl)c1-c1cc(C(=O)N[C@H](CN)Cc2cccc(F)c2)sc1Cl [Afuresertib]
Ki [1]: 0.08 nM
pchembl_value (IC50) [1, 3]: 10.10 and 8.70 and 8.59
pchembl_value (Ki) [1, 3]: 10.10
activation at 10 µM (A549-ACE2 cells): 77.1%
activation at 10 µM (Vero-E6 cells; [2]): 69.5%

CCc1cc(Cl)c(OC)c(C(=O)NC[C@@H]2CCCN2CC)c1O [eticlopride, reference compound]
result_KI (A549-ACE2 cells): 92.2773 percent effect
result_ITMP (Vero-E6 cells): 41.39 percent effect

CCCOC(C(=O)OC1CCN(C)CC1)(c1ccccc1)c1ccccc1 [Propiverine Hydrochloride]
pchembl_value (AC50) [1]: 6.08 and 6.12
AC50 ([1]; read-out: AC50 (value)): 830 nM and 750 nM
activation at 10 µM (A549-ACE2 cells): 102%
activation at 10 µM (Vero-E6 cells; [2]): 63.8%

C[C@@H]1CN(CCCn2c3ccccc3c3ccccc32)C[C@H](C)N1 [rimcazole]
Log IC50 (value) [1]: -6.23
pchembl_value (Log IC50) [1]: 6.23
Ki [1]: 908 nM
pchembl_value (Ki) [1, 3]: 6.04
activation at 10 µM (A549-ACE2 cells): 109%
activation at 10 µM (Vero-E6 cells; [2]): 99.9%

CC(COc1ccccc1Cc1ccccc1)N1CCCCC1 (centres unmarked) [Benproperine Phosphate]
activation at 10 µM (A549-ACE2 cells): 81.6%
activation at 10 µM (Vero-E6 cells; [2]): 72%

O=C(O[C@H]1CN2CCC1CC2)N(Cc1cc(F)c(F)c(F)c1)c1cccc(F)c1 [Tarafenacin (D-tartrate)]
activation at 10 µM (A549-ACE2 cells): 91.5%
activation at 10 µM (Vero-E6 cells; [2]): 71.4%

CCn1c2ccccc2c2cc(CNC)ccc21 [PhiKan-083]
activation at 10 µM (A549-ACE2 cells): 83.6%
activation at 10 µM (Vero-E6 cells; [2]): 73.3%

COc1cccc(CCc2ccccc2OCC[C@@H]2C[C@@H](O)CN2C)c1 [R-96544]
activation at 10 µM (A549-ACE2 cells): 92.6%
activation at 10 µM (Vero-E6 cells; [2]): 90.4%

O[C@H]([C@H](O)[C@@H]1CO1)[C@H]1CO1 [VAL-083, reference compound]
result_KI (A549-ACE2 cells): -10.5072 percent effect
result_ITMP (Vero-E6 cells): -1.6 percent effect

COc1cc2c(cc1O)C(CCc1ccc(Cl)cc1)N(C)CC2 (centres unmarked) [Ro-04-5595]
activation at 10 µM (A549-ACE2 cells): 61%
activation at 10 µM (Vero-E6 cells; [2]): 64%

COc1cc(CN(CCN)C(=O)c2cccs2)ccc1OCc1ccccc1 [M8-B]
activation at 10 µM (A549-ACE2 cells): 72.2%
activation at 10 µM (Vero-E6 cells; [2]): 85.4%

O=C(Nc1ncc(SCCN2CCCC2)s1)[C@]1(c2ccc(S(=O)(=O)C3CC3)cc2)C[C@H]1C1CCCCC1 [LY2608204]
activation at 10 µM (A549-ACE2 cells): 95.6%
activation at 10 µM (Vero-E6 cells; [2]): 55.8%

O=C1NC(=O)c2cc(Nc3ccccc3)c(Nc3ccccc3)cc21 [CGP-52411, reference compound]
result_KI (A549-ACE2 cells): -10.8674 percent effect
result_ITMP (Vero-E6 cells): -7.23 percent effect
activation at 10 µM (Vero-E6 cells; read-out: PL_Result): -10.9%

C[C@@H](O[C@H]1OCCN(Cc2nn[nH]c2CN(C)C)[C@H]1c1ccc(F)cc1)c1cc(C(F)(F)F)cc(C(F)(F)F)c1 [L-760735]
activation at 10 µM (A549-ACE2 cells): 107%
activation at 10 µM (Vero-E6 cells; [2]): 71.2%

Cc1[nH]c2ccc(Cl)cc2c1C1=CCNCC1 [EMD-386088]
activation at 10 µM (A549-ACE2 cells): 79.1%
activation at 10 µM (Vero-E6 cells; [2]): 96.8%

CCn1c2ccccc2c2cc(CNCc3ccccc3OC)ccc21 [HLCL-61 (hydrochloride)]
activation at 10 µM (A549-ACE2 cells): 83%
activation at 10 µM (Vero-E6 cells; [2]): 56.5%

O=C(CN1C2=NCCN2c2ccccc21)c1ccc(-c2ccccc2)cc1 [CCT-031374]
activation at 10 µM (A549-ACE2 cells): 69.9%
activation at 10 µM (Vero-E6 cells; [2]): 53.9%

C[C@H](N)Cn1ccc2cc(F)c(Cl)cc21 [Ro-60-0175 fumarate]
activation at 10 µM (A549-ACE2 cells): 82.7%
activation at 10 µM (Vero-E6 cells; [2]): 50.7%

c1ccc2c(CCNc3ccc(Nc4ccncc4)cc3)c[nH]c2c1 [JNJ 26854165 (Serdemetan)]
activation at 10 µM (A549-ACE2 cells): 88.4%
activation at 10 µM (Vero-E6 cells; [2]): 74%

COc1ccc2[nH]c3c(-c4cccc5ccccc45)nccc3c2c1 [SP-141, reference compound]
result_KI (A549-ACE2 cells): -11.253 percent effect
result_ITMP (Vero-E6 cells): 16.13 percent effect

CN1CC2c3ccccc3Oc3ccc(Cl)cc3C2C1 (centres unmarked) [asenapine maleate]
activation at 10 µM (A549-ACE2 cells): 66.1%
activation at 10 µM (Vero-E6 cells; [2]): 65.2%

CCCCN(CCCC)CCC(O)c1cc2c(Cl)cc(Cl)cc2c2cc(C(F)(F)F)ccc12 (centres unmarked) [Halofantrine?HCl]
activation at 10 µM (A549-ACE2 cells): 77.7%
activation at 10 µM (Vero-E6 cells; [2]): 68.8%

CN(CCc1ccc(Cl)c(Cl)c1)CCN1CCCC1 [BD-1008]
activation at 10 µM (A549-ACE2 cells): 62.5%
activation at 10 µM (Vero-E6 cells; [2]): 51.3%

CN(C)CCCN1c2ccccc2Sc2ccc(C(F)(F)F)cc21 [TRIFLUPROMAZINE HYDROCHLORIDE]
AC50 ([1]; read-out: AC50 (value)): 3 nM

CC(C)c1cc(C(=O)N2Cc3ccc(CN4CCN(C)CC4)cc3C2)c(O)cc1O [SPE_K58435339]
activation at 10 µM (Vero-E6 cells; read-out: PL_Result): 0.714%

COc1ccc(S(=O)(=O)N2CCC[C@H]2C(=O)Nc2cc(C)cc(C)c2)cc1 [SPE_K19781342]
activation at 10 µM (Vero-E6 cells; read-out: PL_Result): 0.676%

CN1C2CCCC1CC(NC(=O)c1nn(C)c3ccccc13)C2 (centres unmarked) [SPE_A10967948]
activation at 10 µM (Vero-E6 cells; read-out: PL_Result): 3.5%

CCCC(CCC)C(=O)NCc1ccc2c(cnn2-c2ccccc2OC)c1 [SPE_K51265828]
activation at 10 µM (Vero-E6 cells; read-out: PL_Result): 1.45%
